In patent US20100189707A1, “Stable Enzymatic Peracid Generating Systems” (priority 2007, published 2010):

Columns and labels:
B. subtilis spores [1] = assay: Killing of B. subtilis spores by PAA; format: cell-based; conditions: 15 min RT
Description: In this Example, experiments conducted to determine the killing curve of peracetic acid (PAA) and PAA in conjunction with detergent (commercially available PUREX® [Dial] was used in this Example) for B. subtilis spores. In these experiments, the B. subtilis spores were prepared as known in the art (See e.g., Siccardi et al., J. Bacteriol., 121:13-19 [1975]). Assays were carried out in duplicate in 96-well, round bottomed microtiter plates (Costar) with peracetic acid (32 wt % in acetic acid; Aldrich). The PAA was serially diluted in either 50 mM KPO4 buffer, pH 7.1 (“Buffer”), or in a 1:500 dilution of Purex (original formula; Dial) in the same buffer (“Buffer+Det”) in a total volume of 50 μl. The amount of PAA added to the assay was 0, 0.4, 4 or 40 mM. A volume of 5 μl of the spore suspension, containing 10^9-10^10 spores, was then added to each well and the assay incubated for 15 min at RT. Ice cold LB (150 μl) (See e.g., Sambrook et al., “Molecular Cloning: A Laboratory Manual”, Second Edition (Cold Spring Harbor), [1989]) was then added to each well, mixed, and 100 μl transferred to a fresh 96-well plate. Serial dilutions of each solution were made (in a total volume of 100 μl/well). A volume of 5 μl of each dilution was spotted onto LA plates (Sambrook et al., supra), and incubated at 37° C. for 17-24 h. Colonies were counted and the % spore killing was determined relative to the respective controls (buffer alone or buffer+detergent, without peracid). The results are presented in Table 1, as an average of duplicates from one experiment. However, the experiment was done twice in duplicate with similar results.

S54V-MsAcT = assay: Enzymatic generation of PAA by S54V variant (ABTS assay); format: biochemical, M. smegmatis; conditions: for relative conversion rate to PAA for the three ester substrates: with S54V-MsAcT, same method as for PGDA
Description: In these experiments, methods known in the art were used to determine the concentration of PAA (See e.g., Pinkernell et al., Analyst, 122:567-571 [1997]). In this ABTS assay, 100 μl of the solution to be analyzed was added to 1 ml of 125 mM potassium citrate buffer, pH 5.0, containing 1.0 mM 3-ethylbenzthiazoline-6-sulfonic acid (ABTS) and 50 uM KI, and allowed to incubate at RT for 3 minutes. The absorbance was measured at 420 nm in a HP 8452A Diode Array Spectrophotomer and compared to a standard curve prepared using authentic standard. The enzymatic reactions to form PAA were initiated with addition of enzyme and conducted at RT. Aliquots were withdrawn from the reactions at the indicated times and analyzed for PAA concentration. The sodium percarbonate used in these experiments was obtained from Kemira and the hydrogen peroxide was obtained from EM Science.
A solution of 39 mM sodium percarbonate (sodium carbonate peroxyhydrate, Technical grade 85%, yielding 100 mM effective H2O2; Kemira) was prepared in 320 mM KPO4 pH 7.1. […] To compare the enzymatic production of PAA from prepared H2O2 (32 wt %, Aldrich) or H2O2 formed from percarbonate under identical pH conditions, two reactions were prepared. One reaction contained 100 mM H2O2 in 320 mM KPO4, pH 7.6, 100 mM 1,2-propylene glycol diacetate (Aldrich), and 2 ppm variant S54V. The absolute concentration of H2O2 was assumed from the value stated on the label and not confirmed by analysis. The second reaction contained 39 mM sodium percarbonate in 320 mM KPO4, pH 7.1, 100 mM 1,2-propylene glycol diacetate, and 2 ppm S54V. The reactions were initiated by the addition of the enzyme. Samples were withdrawn at the times indicated and the concentration of PAA determined as described in Example 1.
In order to study the use of different propyl alcohol acetate ester substrates, the generation of PAA was carried out using the same general method described above for PGDA, but using either propyl acetate or triacetin as the ester substrate. […]
In this Example, experiments to assess the amount of peracetic acid produced from glucose and propyleneglycol diacetate are described. […] Further samples were withdrawn at the times indicated in FIG. 2, and the concentration of PAA determined as described above. No PAA was detected before the addition of enzyme and approximately 9.5 mM PAA was produced from the 20 mM 1,2-propylene glycol diacetate and the H2O2 produced from the glucose/glucose oxidase reaction.
In these experiments, three reactions were prepared, consisting of 320 mM KPO4 pH 7.1, 100 mM 1,2-propylene glycol diacetate (Aldrich), and 100 mM sodium percarbonate. […] Samples were withdrawn at the times indicated in the Figure, and the concentration of PAA determined as described above.

B. subtilis spores [2] = assay: MsAcT system generated PAA killing of B. subtilis spores in buffer or detergent; format: cell-based; conditions: single reaction components in 400 mM KPO4 pH 7.1: 2 ppm S54V variant, 39 mM percarbonate, 100 mM PGDA
Description: In this experiment, sodium percarbonate was used as the source of H2O2. The final solution contained: 100 mM 1,2-propylene glycol diacetate, 2 ppm S54V variant, 39 mM sodium percarbonate (Technical grade 85%; yielding 100 mM effective H2O2) in 320 mM KPO4 pH 7.1 in a total volume of 800 μl. This mix (yield 40 mM PAA) was serially diluted to give additional mixes that yielded 4.9, 9.9 and 20.5 mM PAA. A mix with only 400 mM KPO4 pH 7.1 was used to determine total spore counts in the absence of PAA. The mixes were allowed to incubate at room temperature for 3 min. A volume of 180 μl of each of the mixes was then dispensed into duplicate wells of a round-bottomed 96-well plate (Costar) that contained 20 μl of the spore suspension used in Example 1, to yield a total volume of 200 μl in each well. The liquid was gently pipetted 4-5 times to ensure mixing of the components. The mixes were incubated with the spores for a further 15 or 30 minutes at room temperature. At the 15 and 30 minute time points, 20 μl were removed from each of the wells, added to wells in a fresh 96-well plate and serially diluted in LB to 10^−7 in a total volume of 100 μl. A volume of 5 μl from each dilution of each spore mixture was spotted onto an LA plate, allowed to dry and then incubated overnight at 37° C. Also at the 15 and 30 min time points, an appropriate volume was removed from each well and diluted sufficiently in dH2O to yield a measurable amount of PAA using the ABTS assay on scale with a standard, as described in Example 1. The results of the spore killing are presented as an average of the duplicates.
The experiment was repeated exactly as described except that a 1:500 dilution of Purex in 320 mM KPO4 pH 7.1, was used in place of the buffer. The results are presented in Table 3 (average of duplicates). Controls included various reaction components in 400 mM KPO4 pH 7.1 buffer: 2 ppm S54V variant, 2 ppm S54V variant with 39 mM percarbonate, 100 mM 1,2-propylene glycol diacetate, 100 mM 1,2-propylene glycol diacetate with 39 mM sodium percarbonate, 39 mM sodium percarbonate. […]

CC(=O)OO [PAA, peracetic acid]
% Spore Killing (B. subtilis spores [1]; Buffer + Detergent, 0.4 mM PAA): 0.05%
Spores/ml (B. subtilis spores [1]; Buffer + Detergent, 0.4 mM PAA): 1.7 × 10^9 Spores/ml
% Spore Killing (B. subtilis spores [1]; Buffer + Detergent, 4 mM PAA): 86.4%
Spores/ml (B. subtilis spores [1]; Buffer + Detergent, 4 mM PAA): 2.4 × 10^8 Spores/ml
% Spore Killing (B. subtilis spores [1]; Buffer + Detergent, 40 mM PAA): 100%
Spores/ml (B. subtilis spores [1]; Buffer + Detergent, 40 mM PAA): 0 Spores/ml
% Spore Killing (B. subtilis spores [1]; Buffer, 0.4 mM PAA): 86.4%
Spores/ml (B. subtilis spores [1]; Buffer, 0.4 mM PAA): 2.4 × 10^8 Spores/ml
% Spore Killing (B. subtilis spores [1]; Buffer, 4 mM PAA): 90%
Spores/ml (B. subtilis spores [1]; Buffer, 4 mM PAA): 1.6 × 10^8 Spores/ml
% Spore Killing (B. subtilis spores [1]; Buffer, 40 mM PAA): 100%
Spores/ml (B. subtilis spores [1]; Buffer, 40 mM PAA): 0 Spores/ml

CC(=O)OCC(C)OC(C)=O (stereo not shown) [PGDA, 1,2-propylene glycol diacetate]
relative conversion rate to PAA for the three ester substrates (S54V-MsAcT): PGDA >triacetin >propyl acetate
spores/ml after a 30 min incubation (B. subtilis spores [2]): 5×10^9 spores/ml

CCCOC(C)=O [propyl acetate]
relative conversion rate to PAA for the three ester substrates (S54V-MsAcT): PGDA >triacetin >propyl acetate

O=C([O-])[O-].O=C([O-])[O-].OO.OO.OO.[Na+].[Na+].[Na+].[Na+] [sodium percarbonate]
spores/ml after a 30 min incubation (B. subtilis spores [2]): 1×10^9 spores/ml

B1: S54V variant: M. smegmatis acyl transferase variant comprising the S54V substitution (protein)
chain: MAKRILCFGDSLTWGWVPVEDGAPTERFAPDVRWTGVLAQQLGADFEVIEEGLVARTTNIDDPTDPRLNGASYLPSCLATHLPLDLVIIMLGTNDTKAYFRRTPLDIALGMSVLVTQVLTSAGGVGTTYPAPKVLVVSPPPLAPMPHPWFQLIFEGGEQKTTELARVYSALASFMKVPFFDAGSVISTDGVDGIHFTEANNRDLGVALAEQVRSLL
PAA produced (S54V-MsAcT; 20 mM 1,2-propylene glycol diacetate, H2O2 from glucose/glucose oxidase, 2 ppm S54V variant, RT): approximately 9.5 mM
temperature up to which the enzyme system is functional (S54V-MsAcT; 2 ppm S54V variant, 100 mM PGDA, 100 mM sodium percarbonate, 21, 40, 60° C.): ≥ 60 °C
spores/ml after a 30 min incubation (B. subtilis spores [2]): 5×10^9 spores/ml
